Patent USRE38132E1, “Phenylpyrrolidines, phenylimidazolidines,3-phenyl-1,3-oxizolidines and 3-phenyl-1,3-thiazolidines and their use in the treatment of inflammatory disease” (Boehringer Ingelheim Pharmaceuticals, Inc., priority 1997, dated 2003)
Like-named read-outs stand apart in the source and are kept apart here.

What was measured:
[1] = system: cell bound fibronectin receptor (VLA4) with fibronectin, SKW3 cells; experiment: Inhibition of SKW3 cell binding to fibronectin (selectivity counter-assay); assay type: cell-based, human
Excerpt: (§1) Assay to Determine Inhibition of SKW3 cell binding to ICAM-1 vs. Binding to Fibronectin
(§2) This assay is used to test the selective ability of a test compound to antagonize the interaction of a cell bound form of LFA-1 with ICAM-1. The assay uses a human T cell line, SKW3 cells which express CD18, CD11a and other integrins not related to CD18, CD11a and which can be “activated” by phorbol esters. Phorbol esters enhance the affinity of CD18, CD11a for ICAM-1.
(§3) This same lymphocyte line, SKW3, also adheres to fibronectin in the presence of phorbol esters. This adhesion is mediated by membrane proteins independent of the LFA-1/ICAM-1 interaction. The SKW3 cells express another integrin, VLA4, which is the receptor for fibronectin. Therefore, as a preliminary indication of the selectivity of a test compounds to interfere with Leukointegrin/CAM interactions but not other integrin-ligand binding events, a compound can be tested for its ability to antagonize cell bound fibronectin receptor in its interaction with purified fibronectin. Compounds that inhibit this fibronectin adhesion are not specific antagonists of the CD18, CD11a/ICAM-1 binding.
(§4) Description of Assay Protocol:
(§5) Ninety-six well plates are coated with either sICAM-1(40 μg/mL) or fibronectin (100 μg/mL) in Diluting buffer for 1 h at room temperature. Added to the wells are 100 μL of the appropriately diluted test compound or 100 μL of RPMI with 15% fetal bovine serum as a control. SKW3 cells, which express CD18, CD11a and VLA4 (Dustin, M.; et al., J. Exp. Med. 1987, 165, 672-692) are washed and suspended to a concentration of 10^6 cells/mL in RPMI with 15% fetal bovine serum. Immediately before adding the cells to the wells, cells are stimulated with the phorbol ester 12-myristate 13-acetate (PMA) for a final concentration of […]. 100 μL of cells are then added to the wells resulting in a final concentration of […]. The plates are incubated for 2 h at 37° C. Unbound or loosely bound cells are gently washed away with RPMI.
(§6) Data are reported as the concentration or concentration range (in μM) at which 50% of binding is inhibited.

[2] = system: cell bound form of LFA-1 (CD18, CD11a) with ICAM-1, SKW3 cells; experiment: Inhibition of SKW3 cell binding to ICAM-1 (PMA-stimulated); assay type: cell-based, human; details: Homo sapiens, read-out: Assay to Detect SKW3 Cells Binding to ICAM IC50
Excerpt: as §1, §2, §3, §4, §5, §6

[3] = biological target: T1, interaction of ICAM-1 with the Leukointegrin CD18/CD11a (LFA-1) (Homo sapiens, UniProt P05107+P20701); experiment: Assay to determine inhibition of LFA-1 binding to ICAM-1 (immunopurified LFA-1 on plate-bound sICAM-1, ELISA readout)
T1 construct: endogenous in cells; sICAM-1: made in house, secreted from transfected CHO DUX cells
Excerpt: Assay to Determine Inhibition of LFA-1 Binding to ICAM-1 Purpose of Assay: This assay protocol is designed to study the direct antagonism, by a test compound, of the interaction of the CAM, ICAM-1 with the Leukointegrin CD18/CD11a (LFA-1). […] After collection and neutralization of fractions from the TS2/4 column, samples are pooled and precleared with Protein G agarose. […] Wells are washed 3 times with Diluting Buffer. The bound LFA-1 is detected by the addition of a polyclonal antibody directed against a peptide corresponding to the CD18 cytoplasmic tail in a 1:100 dilution with Diluting Buffer and 1% BSA and allowed to incubate for 45 min at 37° C. Wells are washed 3 times with Diluting Buffer and the bound polyclonal antibody is detected by the addition of a 1:4000 dilution of horse radish peroxidase conjugated to goat immunoglobulin directed against rabbit immunoglobulin. […] The lack of the addition of LFA-1 to the binding assay is used as a background control for all samples. A dose-response curve is obtained for all test compounds. Results of these tests are reported as Kd's in μM.

[4] = values marked c: no inhibition observed up to highest dose
[5] = SKW3, values marked c: no inhibition observed up to highest dose
[6] = values marked e approximated from incomplete dose-response curve

T1 sequence (P20701 26-1170): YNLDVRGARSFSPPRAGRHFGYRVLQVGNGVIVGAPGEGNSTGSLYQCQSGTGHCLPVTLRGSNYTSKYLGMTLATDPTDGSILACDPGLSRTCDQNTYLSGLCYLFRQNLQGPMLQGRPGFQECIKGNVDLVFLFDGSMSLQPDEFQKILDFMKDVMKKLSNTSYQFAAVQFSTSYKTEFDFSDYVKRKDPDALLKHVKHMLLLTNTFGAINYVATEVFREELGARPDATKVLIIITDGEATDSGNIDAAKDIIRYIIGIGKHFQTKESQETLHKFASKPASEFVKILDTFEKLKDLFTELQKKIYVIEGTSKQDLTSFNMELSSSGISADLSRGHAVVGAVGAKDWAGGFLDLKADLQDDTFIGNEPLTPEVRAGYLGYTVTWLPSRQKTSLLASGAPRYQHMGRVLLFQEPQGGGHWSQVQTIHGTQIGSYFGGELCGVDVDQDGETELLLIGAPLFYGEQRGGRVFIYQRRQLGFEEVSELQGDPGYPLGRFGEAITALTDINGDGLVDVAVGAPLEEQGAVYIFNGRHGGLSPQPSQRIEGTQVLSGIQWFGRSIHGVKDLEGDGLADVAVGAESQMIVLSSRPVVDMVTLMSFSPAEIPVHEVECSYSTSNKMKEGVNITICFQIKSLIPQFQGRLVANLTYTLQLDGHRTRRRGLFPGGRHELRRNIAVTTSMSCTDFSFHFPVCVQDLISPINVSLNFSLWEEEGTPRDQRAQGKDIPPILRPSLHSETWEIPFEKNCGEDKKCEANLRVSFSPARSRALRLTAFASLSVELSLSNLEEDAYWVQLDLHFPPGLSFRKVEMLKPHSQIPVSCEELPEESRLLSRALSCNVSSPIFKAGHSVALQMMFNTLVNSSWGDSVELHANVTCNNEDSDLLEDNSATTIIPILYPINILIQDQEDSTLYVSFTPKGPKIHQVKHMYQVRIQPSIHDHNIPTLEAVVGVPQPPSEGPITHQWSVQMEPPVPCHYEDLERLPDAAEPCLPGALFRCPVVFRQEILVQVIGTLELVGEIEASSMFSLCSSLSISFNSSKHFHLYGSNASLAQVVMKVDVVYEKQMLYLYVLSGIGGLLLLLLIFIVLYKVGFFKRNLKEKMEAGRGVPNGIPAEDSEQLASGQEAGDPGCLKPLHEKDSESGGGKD
T1 sequence (P05107 23-769): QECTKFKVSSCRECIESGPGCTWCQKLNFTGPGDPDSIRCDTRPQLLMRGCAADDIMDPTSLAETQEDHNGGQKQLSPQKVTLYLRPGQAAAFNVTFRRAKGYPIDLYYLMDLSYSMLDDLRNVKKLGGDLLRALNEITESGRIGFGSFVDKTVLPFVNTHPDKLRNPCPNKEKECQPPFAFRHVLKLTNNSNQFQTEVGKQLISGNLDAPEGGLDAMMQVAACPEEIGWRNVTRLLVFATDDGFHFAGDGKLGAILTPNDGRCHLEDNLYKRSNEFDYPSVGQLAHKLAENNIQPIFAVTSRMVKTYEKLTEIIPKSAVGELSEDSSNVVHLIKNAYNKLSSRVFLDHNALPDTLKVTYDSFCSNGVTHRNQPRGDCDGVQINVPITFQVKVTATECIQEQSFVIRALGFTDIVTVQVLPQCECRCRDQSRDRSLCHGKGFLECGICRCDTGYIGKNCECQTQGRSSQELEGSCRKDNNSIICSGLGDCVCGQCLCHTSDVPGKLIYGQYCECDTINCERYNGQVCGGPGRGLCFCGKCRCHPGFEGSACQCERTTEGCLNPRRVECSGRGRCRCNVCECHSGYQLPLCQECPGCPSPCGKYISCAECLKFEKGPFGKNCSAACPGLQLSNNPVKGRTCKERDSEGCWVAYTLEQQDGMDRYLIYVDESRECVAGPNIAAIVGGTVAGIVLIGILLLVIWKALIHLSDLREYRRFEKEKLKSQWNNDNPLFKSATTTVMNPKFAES

Compound | Kd [3, 6] | also measured
CCCN1C(=O)N(c2cc(Cl)cc(Cl)c2)C(=O)C1(C)Cc1ccccc1 (centres unmarked) [Example 90] | 730 nM | Cellular Toxicity Assay MTT LD50 (SKW3 cells): >500 µM; Assay to Detect SKW3 Cells Binding to FIBRONECTIN IC50 [1, 4]: No inh^c; IC50 [2, 5]: 50000 to 100000 nM
CN1C(=O)N(c2cc(C(F)(F)F)cc(C(F)(F)F)c2)C(=O)[C@@]1(C)Cc1ccccc1 [Example 267] |  | Cellular Toxicity Assay MTT LD50 (SKW3 cells): 250 µM; Kd [3]: 400 nM
CC1(Cc2c[nH]c3ccccc23)NC(=O)N(c2cc(Cl)cc(Cl)c2)C1=O (centres unmarked) [Example 28] | 2590 nM | Cellular Toxicity Assay MTT LD50 (SKW3 cells): 100 to 200 µM; Assay to Detect SKW3 Cells Binding to FIBRONECTIN IC50 [1, 4]: No inh^c
C[C@@H](c1ccccc1)[C@@]1(C)C(=O)N(c2cc(Cl)cc(Cl)c2)C(=O)N1C [Example 270] |  | Cellular Toxicity Assay MTT LD50 (SKW3 cells): 250 to 500 µM; Kd [3]: 650 nM
CN1C(=O)N(c2cc(C(F)(F)F)cc(C(F)(F)F)c2)C(=O)[C@]1(C)Cc1ccccc1 [Example 268] |  | Cellular Toxicity Assay MTT LD50 (SKW3 cells): 250 to 500 µM; Kd [3]: 1590 nM
O=C1NC(CCc2ccccc2)C(=O)N1c1cc(Cl)cc(Cl)c1 (centres unmarked) [Example 12] | 1750 nM | Cellular Toxicity Assay MTT LD50 (SKW3 cells): 125 to 250 µM
CC1(Cc2ccc(O)cc2)NC(=O)N(c2cc(Cl)cc(Cl)c2)C1=O (centres unmarked) [Example 9] | 7870 nM | Cellular Toxicity Assay MTT LD50 (SKW3 cells): 250 to 500 µM
O=C1NC(Cc2ccc(O)cc2)C(=O)N1c1cc(Cl)cc(Cl)c1 (centres unmarked) [Example 5] | 15400 nM | Cellular Toxicity Assay MTT LD50 (SKW3 cells): 250 to 500 µM
COc1ccc(CC2NC(=O)N(c3cc(Cl)cc(Cl)c3)C2=O)cc1 (centres unmarked) [Example 8] | 2860 nM | Cellular Toxicity Assay MTT LD50 (SKW3 cells): 125 to 500 µM
CN1C(=O)N(c2cc(Cl)cc(Cl)c2)C(=O)[C@]1(C)Cc1ccc(Br)cc1 [Example 272] |  | Cellular Toxicity Assay MTT LD50 (SKW3 cells): 250 to 500 µM; Assay to Detect SKW3 Cells Binding to FIBRONECTIN IC50 ([1]; No inh = no inhibition observed up to highest dose, exact quantification not always possible due to intrinsic toxicity): No inh^c; IC50 ([2]; SKW3): 50000 to 100000 nM
C[C@@]1(Cc2ccc(Br)cc2)CC(=O)N(c2cc(Cl)cc(Cl)c2)C1=O [Example 278] |  | Kd [3]: 1090 nM
CC1(Cc2ccc(-c3cccc(F)c3)cc2)NC(=O)N(c2cc(Cl)cc(Cl)c2)C1=O (centres unmarked) [Example 212] |  | Kd [3]: 70 nM
COc1cccc(CC2(C)C(=O)N(c3cc(Cl)cc(Cl)c3)C(=O)N2C)c1 (centres unmarked) [Example 165] | 1070 nM | 
C[C@H]1C(=O)N(c2cc(Cl)cc(Cl)c2)C(=O)[C@]1(C)Cc1ccccc1 [Example 74] | 670 nM | 
CC1(Cc2ccc(-c3cccc([N+](=O)[O-])c3)cc2)NC(=O)N(c2cc(Cl)cc(Cl)c2)C1=O (centres unmarked) [Example 204] | 500 nM | 
C[C@]1(Cc2c[nH]c3ccccc23)NC(=O)N(c2cc(Cl)cc(Cl)c2)C1=O [Example 42] | 600 nM | 
C[C@@]1(Cc2ccc(Br)cc2)C(=O)N(c2cc(Cl)cc(Cl)c2)C(=O)N1Cc1ccc(C#N)cc1 [Example 115] | 240 nM | 
CCCN1C(=O)N(c2cc(Cl)cc(Cl)c2)C(=O)C1(C)Cc1ccc(Br)cc1 (centres unmarked) [Example 106] | 140 nM | 
CC(C)(C)OC(=O)CN1C(=O)N(c2cc(Cl)cc(Cl)c2)C(=O)C1(C)Cc1ccccc1 (centres unmarked) [Example 91] | 430 nM | 
CN1C(=O)N(c2cc(Cl)cc(Cl)c2)C(=O)C1Cc1ccc(C(=O)c2ccccc2)cc1 (centres unmarked) [Example 95] | 260 nM | 

Compound | Kd [3, 6] | also measured
C[C@@]1(Cc2ccc(Br)cc2)C(=O)N(c2cc(Cl)cc(Cl)c2)C(=O)N1COC(=O)C(CO)CO [Example 238] |  | Kd [3]: 80 nM
C[C@]1(Cc2cccc(-c3ccccc3)c2)NC(=O)N(c2cc(Cl)cc(Cl)c2)C1=O [Example 185] | 250 nM | 
CN(C)C(=O)c1ccc(CC2(C)C(=O)N(c3cc(Cl)cc(Cl)c3)C(=O)N2C)cc1 (centres unmarked) [Example 258] |  | Kd [3]: 1660 nM
CC1(Cc2ccc(-c3ccc(C(F)(F)F)cc3)cc2)NC(=O)N(c2cc(Cl)cc(Cl)c2)C1=O (centres unmarked) [Example 208] | 650 nM | 
CC1(Cc2ccc(Br)cc2)NC(=S)N(c2cc(Cl)cc(Cl)c2)C1=S (centres unmarked) [Example 78] | 340 nM | 
COCC1(Cc2ccc(Br)cc2)C(=O)N(c2cc(Cl)cc(Cl)c2)C(=O)N1C (centres unmarked) [Example 175] | 230 nM | 
CN1C(=O)N(c2cc(Cl)cc(Cl)c2)C(=O)C1(C)Cc1ccc(Br)cc1 (centres unmarked) [Example 138] |  | Cellular Toxicity Assay MTT LD50 (SKW3 cells): 250 to 500 µM; Assay to Detect SKW3 Cells Binding to FIBRONECTIN IC50 [1, 4]: No inh^c; IC50 [2, 5]: 6000 nM
CN1C(=O)N(c2cc(Cl)cc(Cl)c2)C(=O)C1(C)Cc1ccccc1Cl (centres unmarked) [Example 156] | 690 nM | 
COc1cccc(CN2C(=O)N(c3cc(Cl)cc(Cl)c3)C(=O)[C@@]2(C)Cc2ccc(Br)cc2)n1 [Example 112] | 390 nM | 
O=C1NC(Cc2ccccc2O)C(=O)N1c1cc(Cl)cc(Cl)c1 (centres unmarked) [Example 3] | 3000 nM | Cellular Toxicity Assay MTT LD50 (SKW3 cells): 125 to 250 µM
CC1(Cc2ccc(C(C)(C)C)cc2)NC(=O)N(c2cc(Cl)cc(Cl)c2)C1=O (centres unmarked) [Example 52] | 1590 nM | 
CC1(Cc2ccccc2Br)NC(=O)N(c2cc(Cl)cc(Cl)c2)C1=O (centres unmarked) [Example 48] | 1750 nM | 
CN1C(=O)N(c2cc(Cl)cc(Cl)c2)C(=O)C1(C)Cc1c(F)c(F)c(F)c(F)c1F (centres unmarked) [Example 167] | 600 nM | 
C[C@@]1(Cc2ccc(Br)cc2)C(=O)N(c2cc(Cl)cc(Cl)c2)C(=O)N1Cc1ccccc1C(=O)O [Example 239] |  | Kd [3]: 280 nM
CCCC1(Cc2ccccc2)NC(=O)N(c2cc(Cl)cc(Cl)c2)C1=O (centres unmarked) [Example 31] | 1360 nM | 
C[C@@]1(Cc2ccc(Br)cc2)C(=O)N(c2cc(Cl)cc(Cl)c2)C(=O)N1Cc1ccc(O)cc1 [Example 246] |  | Kd [3]: 250 nM
Cc1ccccc1CC1(C)C(=O)N(c2cc(Cl)cc(Cl)c2)C(=O)N1C (centres unmarked) [Example 148] | 500 nM | 
Cc1ccc(CC2(C)C(=O)N(c3cc(Cl)cc(Cl)c3)C(=O)N2C)cc1 (centres unmarked) [Example 170] | 20 nM | 
CC1(Cc2ccc(-c3ccccc3F)cc2)NC(=O)N(c2cc(Cl)cc(Cl)c2)C1=O (centres unmarked) [Example 200] | 90 nM | 
CC1(Cc2ccc(-c3cccs3)cc2)NC(=O)N(c2cc(Cl)cc(Cl)c2)C1=O (centres unmarked) [Example 195] | 300 nM | 

Compound | Kd [3, 6] | also measured
CCOc1cccc(-c2ccc(CC3(C)NC(=O)N(c4cc(Cl)cc(Cl)c4)C3=O)cc2)c1 (centres unmarked) [Example 198] | 140 nM | 
CN1C(=S)N(c2cc(Cl)cc(Cl)c2)C(=S)C1(C)Cc1ccc(Br)cc1 (centres unmarked) [Example 79] | 430 nM | 
CC1(Cc2ccccc2)CC(=O)N(c2cc(Cl)cc(Cl)c2)C1=O (centres unmarked) [Example 75] | 290 nM | 
COc1ccc(CN2C(=O)N(c3cc(Cl)cc(Cl)c3)C(=O)[C@@]2(C)Cc2ccc(Br)cc2)cc1 [Example 113] | 1910 nM | 
C[C@]1(Cc2ccc(Br)cc2)NC(=O)N(c2cccc(Cl)c2)C1=O [Example 36] | 4050 nM | 
C[C@@]1(Cc2ccc(Br)cc2)C(=O)N(c2cc(Cl)cc(Cl)c2)C(=O)N1CCCCCP(=O)(O)O [Example 222] |  | Kd [3]: 60 nM
CC1(Cc2cccc(OC(F)(F)F)c2)NC(=O)N(c2cc(Cl)cc(Cl)c2)C1=O (centres unmarked) [Example 68] | 2580 nM | 
CCN1C(=O)N(c2cc(Cl)cc(Cl)c2)C(=O)C1(C)Cc1ccc(Br)cc1 (centres unmarked) [Example 105] | 120 nM | 
COC(=O)c1ccc(CC2(C)C(=O)N(c3cc(Cl)cc(Cl)c3)C(=O)N2C)cc1 (centres unmarked) [Example 174] | 710 nM | 
CCC1(Cc2ccccc2)NC(=O)N(c2cc(Cl)cc(Cl)c2)C1=O (centres unmarked) [Example 30] | 1480 nM | 
COc1ccccc1-c1ccc(CC2(C)NC(=O)N(c3cc(Cl)cc(Cl)c3)C2=O)cc1 (centres unmarked) [Example 194] | 270 nM | 
CC1(Cc2ccc(-c3cccc(Cl)c3)cc2)NC(=O)N(c2cc(Cl)cc(Cl)c2)C1=O (centres unmarked) [Example 202] | 230 nM | 
COC(=O)c1ccc(CC2(C)NC(=O)N(c3cc(Cl)cc(Cl)c3)C2=O)cc1 (centres unmarked) [Example 46] | 2260 nM | 
CC(C)N1C(=O)N(c2cc(Cl)cc(Cl)c2)C(=O)C1(C)Cc1ccc(Br)cc1 (centres unmarked) [Example 139] | 790 nM | 
O=C1NC(Cc2cccc(O)c2)C(=O)N1c1cc(Cl)cc(Cl)c1 (centres unmarked) [Example 4] | 9320 nM | Cellular Toxicity Assay MTT LD50 (SKW3 cells): 250 to 500 µM
O=C1NC(c2ccccc2)C(=O)N1c1cc(Cl)cc(Cl)c1 (centres unmarked) [Example 6] | 12800 nM | Cellular Toxicity Assay MTT LD50 (SKW3 cells): 250 to 500 µM
CC1(Cc2ccc(C(F)(F)F)cc2)NC(=O)N(c2cc(Cl)cc(Cl)c2)C1=O (centres unmarked) [Example 51] | 430 nM | 
CN1C(=O)N(c2cc(Cl)cc(Cl)c2)C(=O)C1C(O)c1ccccc1 (centres unmarked) [Example 178] | 1170 nM | 
